Activity calls are given as the source filed them. No cut-off for these calls is given here.

In general, IC50 refers to the concentration that inhibits the measured activity by half.

A short description of data set [1]: Toxicity against human MCF7 cells assessed as reduction in cell viability measured after 48 hrs by MTT assay. It counts as cell-based. On the technique in general: Tetrazolium dyes change colour on reduction, which living cells bring about.
The test system of data set [2] is MCF7. Kind of data set: Photo-cytotoxicity against human MCF7 cells assessed as reduction in cell viability incubated for 48 hrs followed by 28.8 J/cm2 laser irradiation for 20 mins by MTT assay. Format: functional, cell-based. Particulars: MCF7, light or radiation study.
For data set [3], the system named is MCF7. Kind of data set: Photo-cytotoxicity against human MCF7 cells assessed as induction of cell death incubated for 48 hrs followed by 28.8 J/cm2 laser irradiation dose 20 mins by MTT assay. It counts as functional, cell-based.
The test system of another data set is MKN-45. Kind of data set: Photo-cytotoxicity against human MKN45 cells assessed as induction of cell death incubated for 48 hrs followed by 28.8 J/cm2 laser irradiation dose 20 mins by MTT assay. Format: functional, cell-based.
The next data set deals with HCT-116. Kind of data set: Photo-cytotoxicity against human HCT116 cells assessed as induction of cell death incubated for 48 hrs followed by 28.8 J/cm2 laser irradiation dose 20 mins by MTT assay. Format: functional, cell-based.
The subject of data set [4] is A-375. Description: Photo-cytotoxicity against human A375 cells assessed as induction of cell death incubated for 48 hrs followed by 28.8 J/cm2 laser irradiation dose 20 mins by MTT assay. Format: functional, cell-based.
The nature of data set [5]: Cellular uptake in mitochondria of human […] cells at 2.5 uM incubated for 48 hrs followed by 28.8 J/cm2 laser irradiation for 20 mins by Mitotracker Red dye based confocal microscopy. Format: ADME.
Data set [6] can be described thus: Cellular uptake in endoplasmic reticulum of human […] cells at 2.5 uM incubated for 48 hrs followed by 28.8 J/cm2 laser irradiation for 20 mins by ER tracker Red dye based confocal microscopy. It counts as ADME, cell-based.
Data set [7] deals with A-375. Kind of data set: Antitumor activity against human A375 cells xenografted in nude mouse assessed as tumor size at 5 mg/kg administered twice week measured after 21 days (reference value: 4.31 +/- 0.38). It counts as functional. In general terms: Xenograft models place foreign cells or tissue in a host animal.
A short description of data set [8]: Cellular uptake in lysosome of human […] cells at 2.5 uM incubated for 48 hrs followed by 28.8 J/cm2 laser irradiation for 20 mins by lysosome Red dye based confocal microscopy. It counts as ADME, cell-based.
A short description of data set [9]: Cellular uptake in nucleus of human […] cells at 2.5 uM incubated for 48 hrs followed by 28.8 J/cm2 laser irradiation for 20 mins by DAPI dye based confocal microscopy. Format: ADME, cell-based.
In data set [10] the test system is A-375. Kind of data set: Antitumor activity against human A375 cells xenografted in nude mouse exposed to 28.8 J/cm2 laser irradiation assessed as tumor size at 5 mg/kg administered twice week measured after 21 days (reference value: 4.31 +/- 0.38). It counts as functional.
Data set [11] relates to Mus musculus. Kind of data set: Toxicity in nude mouse xenografted with human A375 cells exposed to 28.8 J/cm2 laser irradiation assessed as change in body weight at 5 mg/kg administered twice a week measured after 21 days. It counts as organism-based, A-375. Conditions: in vivo, 504 h.
Data set [12] has as its system Mus musculus. Kind of data set: Toxicity in nude mouse xenografted with human A375 cells assessed as change in body weight at 5 mg/kg administered twice a week measured after 21 days. Format: organism-based, A-375. Particulars: in vivo, 504 h.
Data set [13] relates to Mus musculus. Description: Toxicity in nude mouse xenografted with human A375 cells assessed as tissue lesions at 5 mg/kg by hematoxylin-eosin staining method. Format: organism-based, A-375. Conditions: in vivo.
The test system of data set [14] is Mus musculus. Description: Toxicity in nude mouse xenografted with human A375 cells exposed to 28.8 J/cm2 laser irradiation assessed as tissue lesions at 5 mg/kg by hematoxylin-eosin staining method. Format: organism-based, A-375. Conditions: in vivo.
Data set [15] relates to A-375. Description: Induction of apoptosis in human A375 cells exposed to 28.8 J/cm2 laser irradiation assessed as increase in intracellular ROS using DCFH-DA after 4 hrs by spectrofluorimetric method. Format: functional, cell-based.
Data set [16] relates to A-375. Description: Induction of apoptosis in human A375 cells exposed to 28.8 J/cm2 laser irradiation assessed as increase in intracellular ROS using DCFH-DA after 12 hrs by spectrofluorimetric method. It counts as functional, cell-based.
In data set [17] the test system is A-375. Description: Induction of apoptosis in human A375 cells exposed to 28.8 J/cm2 laser irradiation assessed as increase in caspase3 cleavage by western blot analysis. It counts as functional, cell-based. Conditions: TDE = time-dependent effect.
For data set [18], the system named is A-375. Description: Induction of apoptosis in human A375 cells exposed to 28.8 J/cm2 laser irradiation assessed as increase in PARP cleavage by western blot analysis. It counts as functional, cell-based. Conditions: TDE = time-dependent effect. (In general: A western blot detects proteins with antibodies after separation by electrophoresis.)
Data set [19] concerns A-375. Kind of data set: Induction apoptosis in human A375 cells xenografted into nude mouse exposed to 28.8 J/cm2 laser irradiation assessed as increase in cleaved capase-3 level at 5 mg/kg administered twice week measured after 21 days by immunohistochemistry assay. Format: functional, organism-based.
The subject of data set [20] is A-375. Kind of data set: Induction of apoptosis in human A375 cells exposed to 28.8 J/cm2 laser irradiation assessed as nuclear condensation measured after 12 hrs by TUNEL assay. Format: functional, cell-based.
Data set [21] deals with A-375. Description: Induction of apoptosis in human A375 cells exposed to 28.8 J/cm2 laser irradiation assessed as nuclear fragmentation measured after 12 hrs by TUNEL assay. It counts as functional, cell-based.
Data set [22] has as its system A-375. Description: Induction of apoptosis in human A375 cells exposed to 28.8 J/cm2 laser irradiation assessed as apoptotic bodies measured after 12 hrs by TUNEL assay. Format: functional, cell-based.
Data set [23] concerns A-375. Description: Induction apoptosis in human A375 cells xenografted into nude mouse exposed to 28.8 J/cm2 laser irradiation at 5 mg/kg administered twice week measured after 21 days by TUNEL assay. Format: functional, organism-based.
Data set [24] concerns A-375. Kind of data set: Induction apoptosis in human A375 cells xenografted into nude mouse at 5 mg/kg administered twice week measured after 21 days by TUNEL assay. It counts as functional, organism-based.
Data set [25] has as its system A-375. Description: Cellular uptake in human A375 cells at 2.5 uM incubated for 48 hrs followed by 28.8 J/cm2 laser irradiation for 20 mins by fluorescence microscopic imaging method. It counts as ADME, cell-based. Particulars: a-375, 48 h.

Take `O=C1c2cccc3c2c(cc2c4cc(Br)ccc4sc32)C(=O)N1CCOCCO`: the IC50 at 48 h in data set [1] is > 50 µM. Moreover, the IC50 in the data set with MCF7 [2] turned out to be 18.5 µM.

Turning to `O=C1c2cccc3c2c(cc2c4ccccc4sc32)C(=O)N1CCOCCO`, the IC50 at 48 h in [1] turned out to be 18.8 µM. The IC50 in the data set with MCF7 [2] is 11.4 µM.

As to `O=c1c2ccc3sc4ccccc4c4ccc(c(=O)n1CCOCCO)c2c34`, the IC50 at 48 h in [1] came to 18.2 µM. Further, the IC50 with MCF7 [2] stood at 1.4 µM.

Take `O=c1c2ccc3sc4ccc(Br)cc4c4ccc(c(=O)n1CCOCCO)c2c34`: the IC50 at 48 h in data set [1] is > 50 µM. In the data set on MCF7 [2], the IC50 stood at 2.65 µM. The Activity result in the data set with MCF7 [3] was “Dose-dependent effect”; in the data set with MKN-45, “Dose-dependent effect”; in the data set on HCT-116 it was “Dose-dependent effect”; in the data set with A-375 [4], “Dose-dependent effect”; in the data set with Mus musculus [11], “Non-toxic”; in the data set with Mus musculus [12] it was “Non-toxic”. The Activity result in the data set on Mus musculus [13] was “Toxic”; with Mus musculus [14], “Toxic”; in the data set on A-375 [17] it was “tde”; in the data set on A-375 [18], “tde”. The Drug uptake entry in [5] is reported as “Active”; in [6] it was “Not Active”; in data set [8], “Not Active”; in data set [9], “Not Active”; with A-375 [25], “Active”. For the same compound, the results for the “fold change (FC)” value in the data set on A-375 [7] and in the data set on A-375 [10] were 3 and 0.5, respectively. Moreover, the outcome in the data set on A-375 [15], with A-375 [19], in the data set on A-375 [20], in the data set with A-375 [21], with A-375 [22] and in the data set on A-375 [23] was Active. Besides, the outcome in the data set with A-375 [16] and in the data set on A-375 [24] was inactive.
